The subject of one data set is KCC2. Briefly: FluxOR fluorescence based thallium (Tl+) influx assay on KCC2-expressing HEK293 cells. The class given is cell-based. The following applies: for effect on KCC2 activity, normalized to the maximal effect obtained with compound 1: 30 μM, HEK KCC2 cells, 15 minutes incubation. As to the method:
Wild-type or KCC2-expressing Human Embryonic Kidney (HEK) 293 cells (provided by Prof. Eric Delpire Department of Anesthesiology, Vanderbilt University Medical Center, Nashville, Tenn.) were grown up to 80-90% confluence in DMEM/Ham's F-12 (1:1) (Life technologies, Carlsbad, Calif., USA) supplemented with 10% FBS (Life technologies), 50 units/mL penicillin, and 50 µg/mL streptomycin (Life technologies). KCC2-expressing clones were under puromycin selection (20 μg/ml, Life technologies).
The FluxOR™ potassium ion channel assay (Life Technologies Carlsbad, Calif., USA) was performed as outlined in the product information sheet and an earlier published study (Delpire et al., 2009, Proc. Natl. Acad. Sci. USA, 106, 5383-88) to assess KCC2 activity, and adapted to semi-automated high throughput screening. The experiment was performed in the presence of ouabain 200 μM and bumetanide 10 μM in all buffers to block the Na^+/K^+ pump and NKCC1 cotransporters, respectively. Briefly, cells in suspension were incubated in the loading buffer containing the dye at room temperature for 90 min (1/2000 dilution of FluxOR reagent) at the density of 100.000 cells/75 μl, then centrifugated and resuspended in Assay buffer at the same cell density. A number of 100.000 cells (75 μl) were manually handled in each well to the 96-wells black-walled, μclear-bottom plates (Greiner Bio-One, Monroe, N.C., USA) and 5 μl of chemical compounds 1-8 at different concentrations in PBS 1% DMSO (5, 30 and 50 μM) were added to the plates using the Biomek® NX Laboratory automation workstation (Beckman Coulter, Villepinte, France). After 15 minutes incubation, baseline fluorescent signal was measured with the Polarstar omega microplate reader (490 nm excitation and 520 nm emission, BMG Labtech). Then 20 μL per well of 5× thallium stimulus buffer (final concentrations: Tl^+: 2 mM, K^+: 10 mM) was injected and fluorescent signal was read 30 minutes later.
For each plate, 2 columns were dedicated to controls (cell density range from 0.25 to 1.10^5 cells; loading buffer as blank; untreated or treated with NEM (33 μM, for 15 min) wild-type and KCC2-expressing HEK293 cells).
Baseline fluorescent value was subtracted from the fluorescent value measured 30 min after stimulus buffer injection for each well, and this difference was normalized to the number of cells. […] Values converted to percentages such that the maximum of ratio is 100%.

The next data set concerns HEK cells. Description: PrestoBlue cell viability assay (cytotoxicity). The class given is cell-based, Human. The note with it: 30 μM. How it is done: Cytotoxicity were evaluated with fluorescent viability assay on HEK cells lines incubated 1 h with several concentrations of drugs. TC50: Toxic Concentration for 50% of the population.
After stimulus buffer induced signal acquisition, PrestoBlue® Cell Viability Reagent (Life technologies), a cell permeable resazurin-based solution was used according to manufacturer procedure as a cell viability indicator (Excitation/Emission (nm): 535-560/590-615).

Take `OCCN1CCN(CCCN2c3ccccc3Sc3ccc(Cl)cc32)CC1` [compound 1, 2-[4-[3-(2-chloro-10H-phenothiazin-10-yl)propyl]piperazin-1-yl]ethanol]: the “effect on KCC2 activity, normalized to the maximal effect obtained with compound 1” value with KCC2 turned out to be 100%. Further, the “specific activation of KCC2 across a dose range” value in the data set with KCC2 (HEK KCC2 compared to WT HEK cells, non-cytotoxic dose range) was “activate specifically KCC2 in a dose dependant manner”. Consider `CN1CCN(CCCN2c3ccccc3Sc3ccccc32)CC1` [compound 7, 10-[3-(4-methylpiperazin-1-yl)propyl]-10H-phenothiazine], for which, in the data set on KCC2, the “effect on KCC2 activity, normalized to the maximal effect obtained with compound 1” value was determined as 55%. Take `CCSc1ccc2c(c1)N(CCCN1CCN(C)CC1)c1ccccc1S2` [compound 8, 2-(ethylthio)-10-[3-(4-methylpiperazin-1-yl)propyl]-10H-phenothiazine]: the cytotoxicity result with HEK cells is on record as “cytotoxic”.
